Test results as given in patent US20240279201A1, “DUAL WNT SIGNALING PATHWAY INHIBITORS AND AMPK ACTIVATORS FOR TREATMENTS OF DISEASE” (priority 2021, published 2024).
Values joined by “and” are separate entries in the source; they are usually repeats but may differ in a detail not shown here. Identical values can stand only once. “Also recorded” adds a separate entry of the source.

Experiments:
[1] = Toxicity in normal HEK293 cells; format: cell-based; details: human
Protocol: YA6060 has an excellent druglike profile. […] The ADMET and PK properties of YA6060 was determined.

[2] = Toxicity evaluation in mice (oral gavage); format: in vivo
Protocol: FIG. 8 illustrates the preliminary toxicity evaluated for YA6060 in major mouse organs. […] 11 weeks C57BL/6 mice were treated for […]. The isolated tissues were stained by Haematoxylin and Eosin (H&E). The images were taken under an amplification of 20×.
Body weight change was measured over time in mice received YA6060. […]

HT29 cells = assay: Viability of HT29 cells; format: cell-based; details: Homo sapiens, HT-29, read-out: IC50, cell viability
[3] = tested on: Wnt/β-Catenin signaling pathway; assay: Wnt signaling luciferase (TOPflash) reporter gene assay; format: cell-based; details: luciferase reporter gene assay; mean of three independent experiments; read-out: IC50 (nM) to inhibit the Wnt signaling activity
Source text: A dual-luciferase gene reporter assay was used to test inhibitory activities of new compounds on Wnt signaling. […] Therefore, the effects of new compounds on AMPK was examined. […]

AMPK = assay: Western blotting of phosphorylated AMPK in HEK293 cells; format: cell-based; details: 100 nM, 24 h
Protocol: FIG. 6A-FIG. 6E illustrate the development of Axin stabilizers with dual activities of Wnt inhibition and AMPK activation. […] HEK293 cells were used. B&C: 100 nM compounds, 24 h. FIG. 6D is a table showing the activity profile of YA6060. F=bioavailability; soubility is aqueous solubility.
A dual-luciferase gene reporter assay was used to test inhibitory activities of new compounds on Wnt signaling. […] Axin is also reported to form a complex with AMPK and its upstream kinase LKB1 (FIG. 12A and FIG. 12B) to facilitate AMPK activation. Therefore, the effects of new compounds on AMPK was examined. […] YA6060 and its analogs had dual activities of potent Wnt signaling inhibition and AMPK activation, which were dependent on the levels of scaffolding protein Axin.

TGF-β-treated LX-2 cells = assay: Anti-fibrotic efficacy in TGF-β-treated LX-2 cells; format: cell-based; details: 24 hours
Protocol: FIG. 9A-FIG. 9C illustrate the anti-fibrotic efficacy of YA6060 in LX-2 cells. LX-2 cells were exposure to TGF-beta with and without different concentrations of YA6060 for 24 hours. FIG. 9A is a gel illustrating Western blot results. FIG. 9B and FIG. 9C are graphs of experimental data illustrating RT-PCR results. FIG. 14A-FIG. 14C illustrate the anti-fibrotic efficacy of YA6060 in LX-2 cells. The effect of YA6060 treatment on the expression of fibrotic markers in LX-2 cells was examined. LX-2 cells were treated with TGF-beta to model fibrosis. FIG. 14A is an image of a Western blot illustrating protein expression of collagen 1, vimentin, and alpha-SMA. […] FIG. 14C is a graph of experimental data illustrating mRNA expression of genes associated with inflammation by RT-PCR. The cells were treated with the indicated concentrations of YA6060 for 24 hours. *P<0.05, **P<0.01. […] The effect of YA6060 treatment on the expression of fibrotic markers in LX-2 cells was examined. LX-2 cells were treated with TGF-beta to model fibrosis. Protein expression of collagen 1, vimentin, and alpha-SMA by Western blotting (FIG. 14A). mRNA expression of collagen 1, vimentin, and alpha-SMA by RT-PCR was examined (FIG. 14B). mRNA expression of genes associated with inflammation by RT-PCR was examined (FIG. 14C). The cells were treated with the indicated concentrations of YA6060 for 24 hours. *P<0.05, **P<0.01. […]

Hygroscopicity = format: physicochemical; details: HCl salt
Source text: This Example provides evidence to access the therapeutic potential of simultaneously targeting Wnt signaling and AMPK pathways as novel anti-CRC therapeutic strategy. […] In addition, the chemical structure of YA6060 contains multiple C—H bonds that are liable to P450-mediated oxidations in the liver. Therefore, novel YA6060 analogs with acceptable non-hygroscopicity along with excellent metabolic stability are highly desirable for its further development.
Non-hygroscopic salts of YA6060. YA6060 is an HCl salt with high hygroscopicity. YA6060 can readily absorb moisture from the environment that limits the stability and the further therapeutic application of the compound. Non-hygroscopic salts of YA6060 are generated by screening the anionic of the neutral amino parent YA6060 with a panel of acids that has been reported to form acceptably non-hygroscopic salts. Specific acids include valproic (1), maleic (2), tartaric (3), oxalic (4) and pamoic (5) acids, to get the corresponding salts.

In the case of `Cc1ccccc1-n1nnc(C(=O)Nc2ccc3cc(CN4CCNCC4)ccc3n2)c1C` [YA6060], the IC50 [1] is reported as over 100000 nM, the MTD at 21 days ([2]; C57BL/6, mouse, in vivo, oral, 500 mg/kg, mice, single dose) is reported as over 500 mg/kg and the “acute toxicity test (body weight change)” value ([2]; mouse, in vivo, po) is reported as “did not exhibit acute toxicity”. For the same compound, the “toxicity / tolerability in mice, histology of major organs” value ([2]; oral gavage 500 mg/kg once, 21-day evaluation) was “no obvious toxicity; also recorded: no noticeable toxic effects; also recorded: well tolerated; also recorded: No histological changes”, the “safety margin over an efficacy dose (0.5 mg/kg) for liver fibrosis” value ([2]; single dose of 500 mg/kg) was > 1,000 fold and the IC50 (HT29 cells) was 8600 nM. The IC50 [3] was 4.3 nM and 4 nM, the “levels of phosphorylated AMPK (p-AMPK)” value (AMPK) was “significantly increased” and the “expression of fibrosis and inflammation markers” value (TGF-β-treated LX-2 cells) was “significantly reduced the expression of fibrosis markers”. For the same compound, the hygroscopicity (Hygroscopicity) was “highly hygroscopic”.
